Like-named read-outs stand apart in the source and are kept apart here.
What was measured:
[1] = test system: Aβ42 production in primary nerve cells; assay: Measurement of amyloid β production inhibition rate using primary nerve cell (Aβ42 sandwich ELISA); assay type: cell-based; conditions: primary nerve cells from cerebral cortex of SD rat fetus, cultured 3 days with compound, culture supernatant, sandwich ELISA for Aβ42, read-out: Aβ42 production inhibitory activity IC50
Experimental: Measurement of Amyloid β Production Inhibition Rate Using Primary Nerve Cell
The primary nerve cells were collected from the cerebral cortex of rat fetus (CLEA Japan, Inc.: SD rat, fetal life 17 days of age), and suspended in a neurobasal medium containing B27 supplement, L-glutamine, penicillin-streptomycin (manufactured by Invitrogen) at 500,000 cells/mL. Then, the suspension was seeded in poly L-lysine-coated 96 well plate (manufactured by SUMITOMO BAKELITE) by 100 μL, and cultured at 37° C., 5% CO2 for 7 days. The medium was completely removed, and a new neurobasal medium was added at 75 μL/well. Thereto was added (75 μL/well) a neurobasal medium supplemented with a 2-fold measurement concentration of an evaluation target compound, and the mixture was cultured for 3 days. The culture supernatant was collected from each well, diluted as appropriate, applied to sandwich ELISA between BNT77 antibody-BA27 antibody (for Aβ40) and sandwich ELISA between BNT77 antibody-3005 antibody (for Aβ42), and the amounts of Aβ40 and Aβ42 were measured.
The amyloid β production inhibition rate (%) of the compound was calculated by the following formula. (1−(amyloid β production amount with addition of compound)/(amyloid β production amount without addition of compound))×100
The amyloid β production 50% inhibitory rate (IC50 value) was calculated using the statistical analysis software (SAS Preclinical Package) as the concentration of the compound showing 50% inhibition when the amyloid β production amount without addition of the compound is 100%. In addition, a new neurobasal medium was added (75 μL/well) to the cells after collection of the culture supernatant, and the cells were left standing for about 30 min to reach room temperature. Cell-Titer Glo Luminescent Cell Viability Assay (manufactured by Promega) was added at 75 μL/well, and the plate was shaken for 2 min and reacted for about 10 min.

[2] = test system: Aβ42 (soluble Aβ in hippocampi); assay: Aβ42 in hippocampi of mice after oral administration (Aβ ELISA); assay type: in vivo; conditions: C57BL/6J mice, 10 mg/kg orally, hippocampi isolated 3 hours after administration, soluble Aβ42 by two-site sandwich ELISA; for inhibition at 10 mg/kg: Mus musculus, po, 3 h, read-out: Aβ42 production inhibitory activity (% inhibition)
Experimental: C57BL/6J mice (7-10 weeks old) were purchased from CLEA Japan Inc. Mice were housed in groups and kept on a 12 h-light; 12 h-dark schedule. All mice were given ad libitum access to food and water.
Each test compound was reconstituted in solubilization buffer ([DMSO (Wako)]: [10% Cremophor (Nakarai)+30% polyethylene glycol 400 (Wako)+60% 2 mol/L Citrate buffer (Wako)]=1:9) and orally administrated at 10 mg/kg.
Hippocampi was isolated from animals, 3 hours after test compounds were orally administrated. Hippocampi were homogenized in ice-cold Tris-extraction buffer (50 mmol/L Tris-HCl, pH 7.2, 200 mmol/L sodium chloride, 2% protease-free bovine serum albumin, and 0.01% sodium merthiolate) containing protease inhibitor cocktails (Roche, Switzerland). After centrifugation at 15,000 rpm for 15 minutes, the supernatants were subjected to two-site sandwich ELISA to measure amount of soluble Aβ. Aβ42 was quantitated by two-site sandwich ELISA using BNT77, which recognizes Aβ11-28, as a capture antibody and BC05-HRP as a detector antibody, respectively.

IC50 ([1]; Rattus norvegicus, 72 h) | IC50 [1] | SMILES | inhibition at 10 mg/kg [2] | Aβ42 production inhibitory activity (% inhibition) ([2]; 10 mg/kg)
 | 28 nM | COc1cc(-c2nnc3n2CCCC3(Oc2cc(F)cc(F)c2)C(C)(C)O)ccc1-c1cnc(C)o1 (centres unmarked) [Example 155, 2-{8-(3,5-difluorophenoxy)-3-[3-methoxy-4-(2-methyl-1,3-oxazol-5-yl)phenyl]-5,6,7,8-tetrahydro[1,2,4]triazolo[4,3-a]pyridin-8-yl}propan-2-ol] |  | 56%
 | 6 nM | COc1nc(-c2nnc3n2CCCC3(Oc2ccc(F)c(C(F)(F)F)c2)C(C)(C)O)ccc1-n1cnc(C)c1 (centres unmarked) [Example 157, 2-{8-[4-fluoro-3-(trifluoromethyl)phenoxy]-3-[6-methoxy-5-(4-methyl-1H-imidazol-1-yl)pyridin-2-yl]-5,6,7,8-tetrahydro[1,2,4]triazolo[4,3-a]pyridin-8-yl}propan-2-ol] | 61% | 
86 nM |  | COc1cc(-c2nnc3n2CCCC3(Oc2cc(F)c(F)c(F)c2)C(C)(C)O)c(F)cc1-c1cnc(C)o1 (centres unmarked) [Example 162, 2-{3-[2-fluoro-5-methoxy-4-(2-methyl-1,3-oxazol-5-yl)phenyl]-8-(3,4,5-trifluorophenoxy)-5,6,7,8-tetrahydro[1,2,4]triazolo[4,3-a]pyridin-8-yl}propan-2-ol] | 26% | 
47 nM |  | COc1nc(-c2nnc3n2CCCC3(Oc2cc(F)c(F)c(F)c2)C(C)(C)O)ccc1-c1cnc(C)o1 (centres unmarked) [Example 172, 2-{3-[6-methoxy-5-(2-methyl-1,3-oxazol-5-yl)pyridin-2-yl]-8-(3,4,5-trifluorophenoxy)-5,6,7,8-tetrahydro[1,2,4]triazolo[4,3-a]pyridin-8-yl}propan-2-ol] | 35% | 
 | 28 nM | COc1cc(-c2nnn3c2CCCC3(Oc2cc(F)c(F)c(F)c2)C(C)(C)O)ccc1-c1cnc(C)o1 (centres unmarked) [Example 186, 2-{3-[3-methoxy-4-(2-methyl-1,3-oxazol-5-yl)phenyl]-7-(3,4,5-trifluorophenoxy)-4,5,6,7-tetrahydro[1,2,3]triazolo[1,5-a]pyridin-7-yl}propan-2-ol] | 22% | 

The next lines start with the compound.

SMILES | IC50 ([1]; Rattus norvegicus, 72 h) | IC50 [1] | inhibition at 10 mg/kg [2] | Aβ42 production inhibitory activity (% inhibition) ([2]; 10 mg/kg)
COc1nc(-c2nnc3n2CCCC3(Oc2cc(F)c(F)c(F)c2)C(C)(C)O)ccc1-n1cnc(C)c1 (centres unmarked) [Example 134, 2-{3-[6-methoxy-5-(4-methyl-1H-imidazol-1-yl)pyridin-2-yl]-8-(3,4,5-trifluorophenoxy)-5,6,7,8-tetrahydro[1,2,4]triazolo[4,3-a]pyridin-8-yl}propan-2-ol] | 42 nM |  | 31% | 
COc1cc(-c2nnc3n2CCCC3(Oc2ccc(Cl)c(C(F)(F)F)c2)C(C)(C)O)ccc1-n1cnc(C)n1 (centres unmarked) [Example 139, 2-{8-[4-chloro-3-(trifluoromethyl)-phenoxy]-3-[3-methoxy-4-(3-methyl-1H-1,2,4-triazol-1-yl)phenyl]-5,6,7,8-tetrahydro-[1,2,4]triazolo[4,3-a]pyridin-8-yl}propan-2-ol] | 40 nM |  | 22% | 
COc1cc(-c2nnc3n2CCCC3(Oc2cc(F)cc(F)c2)C(C)(C)O)ccc1-c1cnc(C)o1 (centres unmarked) [Example 141, 2-{8-(3,5-difluorophenoxy)-3-[3-methoxy-4-(2-methyl-1,3-oxazol-5-yl)phenyl]-5,6,7,8-tetrahydro[1,2,4]triazolo[4,3-a]pyridin-8-yl}propan-2-ol] |  | 78 nM | 46% | 
COc1cc(-c2nnc3n2CCCC3(Oc2cc(F)c(F)c(F)c2)C(C)(C)O)ccc1-c1cnn(C)c1 (centres unmarked) [Example 144, 2-{3-[3-methoxy-4-(1-methyl-1H-pyrazol-4-yl)phenyl]-8-(3,4,5-trifluorophenoxy)-5,6,7,8-tetrahydro[1,2,4]triazolo[4,3-a]pyridin-8-yl}propan-2-ol] | 214 nM |  | 31% | 
COc1nc(-c2nnc3n2CCC[C@]3(Oc2cc(F)c(F)c(F)c2)C(C)(C)O)ccc1-n1cnc(C)c1 [Example 152, 2-{(8R)-3-[6-methoxy-5-(4-methyl-1H-imidazol-1-yl)pyridin-2-yl]-8-(3,4,5-trifluorophenoxy)-5,6,7,8-tetrahydro[1,2,4]triazolo[4,3-a]pyridin-8-yl}propan-2-ol] | 49 nM |  | 57% | 

— patent US8822699B2, “Heterocyclic compound and use thereof” (Takeda Pharmaceutical Company Limited, priority 2010, dated 2014)
